Data: patent US11896704B2, “Compounds useful for the treatment and/or care of the skin, hair, nails and/or mucous membranes” (LUBRIZOL ADVANCED MATERIALS, INC., priority 2017, dated 2024)

How the values were obtained:
JARID1A protein (KDM5A) = test: JARID1A protein level in synchronized human keratinocytes (HaCaT), ELISA normalized to total protein; assay type: cell-based; settings: 0.5 mg/ml, 7:30 hours, mean of at least six assays
Protocol: In Vitro Study of JARID1A Protein Increase Protein Level by the Peptide […] (PEP-1, H-[SEQ ID. NO. 2]-NH2) on Synchronized Human Keratinocytes Using an ELISA Assay Based on Colorimetric Detection. HaCaT cells (human keratinocyte cell line, Deutsches Krebsforschungszentrum) are seeded at a density of 200.000 cells/well (2 wells per condition) in 12-well plates. Cells are seeded in culture medium Dulbecco's Modified Eagle Medium high GlutamaxTM (Fisher Scientific) supplemented with 10% (volume/volume) Fetal Bovine Serum (Cultek). […] Nuclear extracts are assayed to quantify the level of JARID1A protein and total protein concentration. JARID1A protein is quantified using an enzyme linked immunosorbent assay (Human lysine-specific demethylase 5A (KDM5A) (CUSABIO) according to the manufacturer's protocol. In brief, JARID1A protein is detected with the antibodies provided in the kit and quantified by a colorimetric reaction. Absorbance quantification is carried out by using a microplate reader (ClarioStar®, BMG) set to 450 nm and 570 nm. For wavelength correction, readings at 570 nm were subtracted from readings at 450 nm. Total protein concentration of cell lysate is determined by using Pierce BCA Protein Assay Kit (Thermo Scientific). […] After 30 minutes of incubation at 60° C., the change in colour is measured with the absorbance microplate reader (Clariostar®, BMG) at 562 nm. […]

JARID1A gene = JARID1A gene expression in synchronized human epidermal keratinocytes (HEKa), real time PCR arrays; assay type: cell-based; settings: 0.5 mg/ml, one experiment
Protocol: In Vitro Study of JARID1A Gene Expression in Synchronized Human Epidermal Keratinocytes from Adult (HEKa) Using Real Time PCR Arrays.
HEKa cells (Life Technologies) are seeded at 3.0×10^5 cells/well in 12-well plates (2 wells per condition) and incubated in culture medium, Keratinocyte growth medium supplemented with Mix C39016-CaCl2 solution (Promocell). For synchronization, cells were subjected to two alternative cycles of 12 hours each at 37° C. in 5% CO2 humidified air (day mode) and 33° C. in 5% CO2 humidified air (night mode). 12 hours after starting synchronization, cells are incubated with the peptides at 0.5 mg/ml or (5 μg/ml) in culture medium, depending on the toxicity effects of each peptide (non-toxic conditions are selected). Cells treated with medium alone are used as basal condition.
At the end of synchronization, cell lysates are collected at two different times: 7:30 hour (early morning point) and 11:30 hour (midday point). Briefly, cells are lysed directly in the wells, and RNA is purified following the protocol described on the RNeasy™ Mini kit (Qiagen) according to the manufacture's protocol. After RNA elution, quantification and analysis of purity of RNA samples are performed with a nanodrop (Thermo). For each sample, 3 μg of high quality RNA is retrotranscribed with iScript Advanced™ (BioRad) in a final volume of 20 μl. Complete reaction mix is incubated in a thermal cycler (Eppendorf) at 42° C. for 30 minutes, and the reaction is stopped at 85° C. for 5 minutes. Complementary DNA is amplified by qPCR in a real-time PCR thermocycler (BioRad) using SYBR Green Supermix™ (BioRad) in the 96-well plate for use with SYBR® Green (BioRad). SYBR Green binds to double-stranded DNA molecules and emits fluorescence which is quantified, and the fluorescence intensity is proportional to the amount of the product in the PCR reaction. Cycling conditions in BioRad CFX96™ instrument are: 95° C. for 3 minutes, followed by 40 cycles of denaturing at 95° C. for 5 seconds, annealing and elongation at 60° C. for 30 seconds. GAPDH (Glyceraldehyde 3-phosphate dehydrogenase), TBP (TATA box binding protein) and HRPT1 (hypoxanthine phosphoribosyltransferase 1) are used as endogenous controls. Fold change relative to the expression of the sample genes and reference genes is calculated using normalized expression (AA(Ct)) method using CFX Manager Software™ (BioRad).
Fold induction of JARID1A gene at 7:30 hour with respect to basal conditions at 7:30 hour for the samples tested are shown in Table 7. The data for fold induction represent the value of one experiment.

Which “Percentage of JARID1A protein relative to basal condition (%)” value (JARID1A protein (KDM5A)) does the source give for “H-Phe-Trp-Met-Lys-Arg-Lys-Arg-Val-Pro-NH2 (H-FWMKRKRVP-NH2) [PEP-1]” here?
The value was 126.84%.

What about the “Fold induction with respect to Basal condition at 7:30h (%)” value (JARID1A gene) of the same substance?
The value was 212.39%.
